Laboratory results reported in patent publication US20050165029A1, “Pyrrolopyrimidine derivatives and analogs and their use in the treatment and prevention of diseases” (Ambit Biosciences Corporation, priority 2004, published 2005).
pKd: −log10 of the molar value.

How the values were obtained:
PDGFR-β = target: T1, PDGFR-β (Homo sapiens, UniProt P09619); experiment: PDGFR-β (DKIN) phage-display competitive binding assay
T1 construct: made in house; host or cells: T7 bacteriophage display
Experimental: (§1) Described in the exemplary assays below is data from binding with varying kinases. […] The term “ND” represents non-determined values.
Kd values for the interactions between PDGFR-β and candidate small molecule ligands were measured by a phage-display-based competitive binding assay that is described in detail in U.S. Ser. No. 10/406,797 filed 2 Apr. 2003 and incorporated herein by reference, Briefly, T7 phage displaying human PDGFR-β were incubated with an affinity matrix coated with known PDGFR-β inhibitor in the presence of various concentrations of the soluble competitor molecules. […] The Kd for the interaction between the soluble competitor molecule and PDGFR-β is equal to the concentration of soluble competitor molecule that causes a 50% reduction in the number of phage recovered in the eluate compared to a control sample lacking soluble competitor. Since this assay is generic, and any molecule can be used as a soluble competitor, we have determined Kd values for the interaction between PDGFR-β and several small molecules, including those shown below.

FLT3 = target: T2, FLT3 (Homo sapiens, UniProt P36888); experiment: FLT3(DKIN) phage-display competitive binding assay
T2 construct: made in house; host or cells: T7 bacteriophage display
T2 sequence (P36888 27-993): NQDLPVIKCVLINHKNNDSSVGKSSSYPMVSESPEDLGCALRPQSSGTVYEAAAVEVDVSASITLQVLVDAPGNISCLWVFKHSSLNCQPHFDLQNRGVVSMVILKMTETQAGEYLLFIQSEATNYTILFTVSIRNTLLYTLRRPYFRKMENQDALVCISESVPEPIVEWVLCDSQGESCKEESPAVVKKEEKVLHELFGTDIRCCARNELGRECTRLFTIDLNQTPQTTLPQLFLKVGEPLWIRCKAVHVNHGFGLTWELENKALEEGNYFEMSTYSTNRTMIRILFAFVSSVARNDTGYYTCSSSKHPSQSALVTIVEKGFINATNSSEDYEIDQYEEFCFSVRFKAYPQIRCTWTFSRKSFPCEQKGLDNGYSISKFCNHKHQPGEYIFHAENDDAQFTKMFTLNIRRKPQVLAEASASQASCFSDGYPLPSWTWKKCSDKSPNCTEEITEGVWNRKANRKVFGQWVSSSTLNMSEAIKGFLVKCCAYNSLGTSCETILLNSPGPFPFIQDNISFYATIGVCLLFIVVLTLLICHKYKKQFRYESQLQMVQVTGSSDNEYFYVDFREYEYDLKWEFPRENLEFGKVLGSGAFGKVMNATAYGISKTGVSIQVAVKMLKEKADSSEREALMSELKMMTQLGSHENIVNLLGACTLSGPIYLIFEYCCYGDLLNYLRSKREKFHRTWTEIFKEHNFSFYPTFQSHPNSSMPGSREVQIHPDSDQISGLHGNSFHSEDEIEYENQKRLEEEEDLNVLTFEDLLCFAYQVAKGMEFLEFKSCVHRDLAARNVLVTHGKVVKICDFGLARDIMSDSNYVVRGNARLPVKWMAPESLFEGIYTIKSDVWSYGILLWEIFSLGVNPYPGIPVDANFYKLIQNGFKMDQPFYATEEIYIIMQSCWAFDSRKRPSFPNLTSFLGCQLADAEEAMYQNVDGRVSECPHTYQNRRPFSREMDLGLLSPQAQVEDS
Text: (§2) Methods for measuring binding affinities for interactions between small molecules and kinases including FLT3, c-KIT, ABL(T334I) [a.k.a. ABL(T315I)], VEGFR-2 (a.k.a. KDR), and EGFR are described in detail in U.S. application Ser. No. 10/873,835, which is incorporated by reference herein in its entirety. The components of the assays include human kinases expressed as fusions to T7 bacteriophage particles and immobilized ligands that bind to the ATP site of the kinases. […] If the test compound binds the kinase it competes with the immobilized ligand and prevents binding to the solid support. […] The results are read out by quantitating the amount of fusion protein bound to the solid support, which is accomplished by either traditional phage plaque assays or by quantitative PCR (qPCR) using the phage genome as a template. […] The concentration of test molecule that reduces the number of phage bound to the solid support by 50% is equal to the Kd for the interaction between the kinase and the test molecule. Typically, data are collected for twelve concentrations of test compound and, the resultant binding curve is fit to a non-cooperative binding isotherm to calculate Kd.
as §1

VEGFR2 = target: T3, VEGFR2 (Homo sapiens, UniProt P35968); experiment: VEGFR2(DKIN) phage-display competitive binding assay
T3 construct: made in house; host or cells: T7 bacteriophage display
Text: as §2, §1

ABL1 = target: T4, ABL1 (Homo sapiens, UniProt P00519); experiment: ABL1 phage-display competitive binding assay
T4 construct: made in house; host or cells: T7 bacteriophage display
Text: as §2, §1

MV4,11 cells = experiment: FLT3 assay using MV4,11 cells (cell proliferation, MTS); format: cell-based; details: Homo sapiens, MV 4,11 cells, 0.5% serum, read-out: (MV 4,11) Cell Proliferation Assay with 0.5% Serum IC50 (nM) “CS0001”
Experimental: The ability of FLT3 kinase inhibitors to inhibit cellular proliferation was also examined. MV4:11 was a cell line derived from a patient with acute myelogenous leukemia. It expressed a mutant FLT3 protein that was constitutively active. […] Inhibition of FLT3 kinase activity prevented proliferation of these cells, and thus the MV4:11 cell line can be used a model for cellular activity of small molecule inhibitors of FLT3.
FLT3 assay using MV4,11 cells
MV4,11 cells were grown in an incubator @ 37° C. in 5% CO2 in Medium 2 (RPMI, 10% FBS, 4 mM glutamine, Penn/Strep). The cells were counted daily and the cell density was kept between 1e5 and 8e5 cells/ml.
Day One: Enough cells were harvested for experiments to be conducted in 50 ml conical tubes. The harvested cells were spun at 500 g for 5 min at 4° C., the supernatant was then aspirated and the cells were resuspended in the starting volume of 1×PBS. The cells were again spun at 500 g for 5 min at 4° C. and the supernatant again aspirated. […]
Day Two: The cells were counted and enough medium 3 was added to decrease density to 2e5 cells/ml. 50 ul (10,000 cells) was aliquoted into each well of a 96 well optical plate using multichannel pipetman. The compound plate was then set up by aliquoting 3 μl of negative control (DMSO) into column 1 of a 96 well 300 ul polypropylene plate, aliquoting 3 μl of positive control (10 mM AB20121) into column 12 of plate, and aliquoting 3 μl of appropriate compounds from serial dilutions into columns 2-11. To each well, 150 μl of Medium 3 was added and 50 μl of compound/medium mixture from compound plate into rows of optical plate in duplicate. The cells were then incubated at @ 37° C. in 5% CO2 for 3 days.
Day Five: MTS was thawed in a H2O bath. 20 μl of MTS was added to each well of optical plate and the cells were incubated @ 37° C. in 5% CO2 for 2 hours. The plate was then placed on a plate shaker for 30 seconds on high speed.

[1] = target: T5, inactive form of KIT, which contains the autoinhibitory juxtamembrane domain (Homo sapiens, UniProt P10721); experiment: KIT (DKIN) Binding Assay; details: inactive form of KIT with autoinhibitory juxtamembrane domain
T5 construct: made in house; host or cells: T7 bacteriophage display
Text: as §2, §1

T3 sequence (P35968 20-1356): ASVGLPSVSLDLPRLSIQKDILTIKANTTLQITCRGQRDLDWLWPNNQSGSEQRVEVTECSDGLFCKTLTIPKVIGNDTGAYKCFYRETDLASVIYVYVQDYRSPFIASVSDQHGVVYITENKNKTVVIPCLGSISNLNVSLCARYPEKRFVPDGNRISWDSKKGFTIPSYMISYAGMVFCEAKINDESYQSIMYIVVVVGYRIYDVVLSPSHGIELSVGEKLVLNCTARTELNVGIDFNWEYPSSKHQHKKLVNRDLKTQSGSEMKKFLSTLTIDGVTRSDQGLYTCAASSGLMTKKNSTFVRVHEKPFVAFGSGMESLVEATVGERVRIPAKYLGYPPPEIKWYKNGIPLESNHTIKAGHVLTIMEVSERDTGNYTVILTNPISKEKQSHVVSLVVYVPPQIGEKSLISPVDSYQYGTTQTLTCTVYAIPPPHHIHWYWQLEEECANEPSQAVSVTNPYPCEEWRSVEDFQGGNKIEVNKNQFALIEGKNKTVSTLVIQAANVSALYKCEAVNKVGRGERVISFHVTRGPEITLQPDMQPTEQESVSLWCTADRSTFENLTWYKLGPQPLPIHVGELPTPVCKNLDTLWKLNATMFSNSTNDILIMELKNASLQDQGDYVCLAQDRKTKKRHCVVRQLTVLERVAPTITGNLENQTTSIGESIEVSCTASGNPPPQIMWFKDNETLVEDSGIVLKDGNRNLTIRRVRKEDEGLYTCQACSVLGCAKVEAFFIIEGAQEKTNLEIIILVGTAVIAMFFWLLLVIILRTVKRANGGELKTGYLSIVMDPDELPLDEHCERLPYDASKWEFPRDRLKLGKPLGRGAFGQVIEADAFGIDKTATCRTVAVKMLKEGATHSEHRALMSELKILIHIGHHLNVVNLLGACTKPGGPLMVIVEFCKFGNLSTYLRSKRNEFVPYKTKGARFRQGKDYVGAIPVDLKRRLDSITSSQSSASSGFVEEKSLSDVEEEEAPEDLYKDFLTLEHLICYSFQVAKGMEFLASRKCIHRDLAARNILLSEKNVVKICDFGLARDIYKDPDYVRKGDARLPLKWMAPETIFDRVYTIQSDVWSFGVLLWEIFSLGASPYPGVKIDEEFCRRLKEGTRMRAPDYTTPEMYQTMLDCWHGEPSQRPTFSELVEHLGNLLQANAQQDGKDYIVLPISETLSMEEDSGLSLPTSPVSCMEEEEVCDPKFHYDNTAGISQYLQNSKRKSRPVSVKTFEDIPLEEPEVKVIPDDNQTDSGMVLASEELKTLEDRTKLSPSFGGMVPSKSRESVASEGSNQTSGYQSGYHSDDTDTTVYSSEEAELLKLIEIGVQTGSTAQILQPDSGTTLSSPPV
T4 sequence (P00519 whole entry): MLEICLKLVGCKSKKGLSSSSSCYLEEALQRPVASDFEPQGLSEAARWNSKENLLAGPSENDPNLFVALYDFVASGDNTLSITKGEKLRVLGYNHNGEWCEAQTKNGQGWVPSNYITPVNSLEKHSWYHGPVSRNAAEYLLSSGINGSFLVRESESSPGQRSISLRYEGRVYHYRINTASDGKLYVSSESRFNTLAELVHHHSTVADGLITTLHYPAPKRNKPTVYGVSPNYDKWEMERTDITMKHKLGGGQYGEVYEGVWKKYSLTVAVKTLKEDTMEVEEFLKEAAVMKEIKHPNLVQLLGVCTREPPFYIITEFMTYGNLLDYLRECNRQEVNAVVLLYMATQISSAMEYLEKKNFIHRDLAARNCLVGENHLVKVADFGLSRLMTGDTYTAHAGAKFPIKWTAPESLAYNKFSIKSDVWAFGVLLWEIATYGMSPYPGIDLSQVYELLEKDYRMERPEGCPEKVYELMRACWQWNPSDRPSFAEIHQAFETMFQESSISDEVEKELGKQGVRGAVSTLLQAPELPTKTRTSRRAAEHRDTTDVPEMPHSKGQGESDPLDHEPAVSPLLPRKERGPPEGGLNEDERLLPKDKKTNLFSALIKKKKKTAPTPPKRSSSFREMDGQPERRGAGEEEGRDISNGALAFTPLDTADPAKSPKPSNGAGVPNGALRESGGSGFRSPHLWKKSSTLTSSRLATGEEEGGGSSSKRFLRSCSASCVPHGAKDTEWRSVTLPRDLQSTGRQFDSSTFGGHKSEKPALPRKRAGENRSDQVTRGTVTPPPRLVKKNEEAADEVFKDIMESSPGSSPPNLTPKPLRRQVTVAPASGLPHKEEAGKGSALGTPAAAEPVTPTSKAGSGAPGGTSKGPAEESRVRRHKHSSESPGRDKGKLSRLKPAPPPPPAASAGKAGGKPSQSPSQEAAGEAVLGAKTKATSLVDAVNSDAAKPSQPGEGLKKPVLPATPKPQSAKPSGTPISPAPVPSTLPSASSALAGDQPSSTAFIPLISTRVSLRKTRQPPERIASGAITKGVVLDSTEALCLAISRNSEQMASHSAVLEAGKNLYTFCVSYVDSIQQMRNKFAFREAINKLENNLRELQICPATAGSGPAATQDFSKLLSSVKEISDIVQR
T1 sequence (P09619 33-1106): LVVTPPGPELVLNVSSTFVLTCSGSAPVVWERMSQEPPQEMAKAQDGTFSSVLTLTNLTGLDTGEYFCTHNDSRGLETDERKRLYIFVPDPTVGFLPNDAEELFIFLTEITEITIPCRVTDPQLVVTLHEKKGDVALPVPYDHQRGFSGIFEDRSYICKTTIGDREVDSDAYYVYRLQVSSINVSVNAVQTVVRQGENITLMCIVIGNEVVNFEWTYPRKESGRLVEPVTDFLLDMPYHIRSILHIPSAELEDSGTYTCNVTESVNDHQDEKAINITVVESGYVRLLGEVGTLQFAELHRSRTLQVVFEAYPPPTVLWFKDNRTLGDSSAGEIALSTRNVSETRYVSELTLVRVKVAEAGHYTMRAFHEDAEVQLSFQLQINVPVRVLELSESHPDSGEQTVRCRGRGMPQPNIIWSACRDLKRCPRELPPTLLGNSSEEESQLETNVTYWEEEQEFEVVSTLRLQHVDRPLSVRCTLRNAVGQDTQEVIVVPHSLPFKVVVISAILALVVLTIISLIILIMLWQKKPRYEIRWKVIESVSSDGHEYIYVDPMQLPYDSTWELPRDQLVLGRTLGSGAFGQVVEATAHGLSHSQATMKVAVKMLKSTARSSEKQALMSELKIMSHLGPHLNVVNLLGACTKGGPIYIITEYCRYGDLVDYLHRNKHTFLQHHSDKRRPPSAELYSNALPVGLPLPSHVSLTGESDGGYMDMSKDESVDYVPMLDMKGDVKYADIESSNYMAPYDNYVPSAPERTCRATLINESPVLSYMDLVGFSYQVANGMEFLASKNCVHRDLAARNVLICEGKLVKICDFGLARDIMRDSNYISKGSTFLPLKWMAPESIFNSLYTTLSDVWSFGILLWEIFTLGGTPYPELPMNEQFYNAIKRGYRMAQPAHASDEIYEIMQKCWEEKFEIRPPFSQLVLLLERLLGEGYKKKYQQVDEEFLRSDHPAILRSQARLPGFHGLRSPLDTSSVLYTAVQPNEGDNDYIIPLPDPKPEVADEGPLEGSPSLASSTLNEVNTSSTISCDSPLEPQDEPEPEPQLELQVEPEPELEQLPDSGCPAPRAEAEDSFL
T5 sequence (P10721 546-976 limits assumed): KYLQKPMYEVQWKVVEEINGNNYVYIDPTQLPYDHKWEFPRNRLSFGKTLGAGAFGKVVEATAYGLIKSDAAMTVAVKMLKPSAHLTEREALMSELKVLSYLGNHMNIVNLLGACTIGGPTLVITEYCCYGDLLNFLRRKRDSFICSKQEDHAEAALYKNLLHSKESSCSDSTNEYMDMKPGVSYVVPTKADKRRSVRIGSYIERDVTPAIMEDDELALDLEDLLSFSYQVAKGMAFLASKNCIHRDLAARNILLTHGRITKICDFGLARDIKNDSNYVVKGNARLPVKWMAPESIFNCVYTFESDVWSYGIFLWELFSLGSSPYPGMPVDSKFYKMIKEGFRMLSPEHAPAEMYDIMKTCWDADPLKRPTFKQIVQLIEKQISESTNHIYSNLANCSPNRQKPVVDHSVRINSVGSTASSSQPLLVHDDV

SMILES | pKd (PDGFR-β) | pKd (FLT3) | other results
COc1ccc(-c2cc3c(Oc4cccc(OC)c4)ncnc3[nH]2)cc1 [Compound D7] | 6.00 to 7.00 | – | –
COc1ccc(-c2cc3c(Oc4cccc(C)c4)ncnc3[nH]2)cc1 [Compound D8] | 5.00 to 6.00 | – | –
COc1ccc(-c2cc3c(Oc4ccc(Cl)cc4)ncnc3[nH]2)cc1 [Compound D11] | 6.00 to 7.00 | – | –
COc1ccc(-c2cc3c(Oc4ccc(F)cc4)ncnc3[nH]2)cc1 [Compound D13] | 6.00 to 7.00 | 6.00 to 7.00 | –
COc1ccc(-c2cc3c(Oc4ccc(C)cc4)ncnc3[nH]2)cc1 [Compound D14] | 5.00 to 6.00 | 5.00 to 6.00 | –
COc1cccc(-c2cc3c(Oc4ccc(Cl)cc4)ncnc3[nH]2)c1 [Compound D22] | 6.00 to 7.00 | – | –
COc1cccc(-c2cc3c(Oc4ccccc4)ncnc3[nH]2)c1 [Compound D24] | 5.00 to 6.00 | 6.00 to 7.00 | –
COc1cccc(Oc2ncnc3[nH]c(-c4ccc(O)cc4)cc23)c1 [Compound E4] | – | – | pKd (VEGFR2): 5.00 to 6.00
Clc1ccccc1Sc1ncnc2[nH]ccc12 [Compound F1, 4-(2-Chloro-phenylsulfanyl)-7H-pyrrolo[2,3-d]pyrimidine] | – | < 5.00 | –
COc1ccc(-c2cc3c(Sc4ccc(Cl)c(Cl)c4)ncnc3[nH]2)cc1 [Compound J3] | – | – | pKd (ABL1): > 7.00
COc1ccc(-c2cc3c(Sc4cc(C)cc(C)c4)ncnc3[nH]2)cc1 [Compound J5] | – | < 5.00 | IC50 (MV4,11 cells): < 100 nM
COc1ccc(-c2cc3c(Sc4cccc(OC)c4)ncnc3[nH]2)cc1 [Compound J9] | – | – | pKd (ABL1): 6.00 to 7.00
COc1ccc(-c2cc3c(Sc4ccc(Cl)cc4)ncnc3[nH]2)cc1 [Compound J12] | 5.00 to 6.00 | – | –
COc1ccc(-c2cc3c(Sc4ccc(C)cc4)ncnc3[nH]2)cc1 [Compound J14] | 6.00 to 7.00 | – | pKd (VEGFR2): 6.00 to 7.00
COc1ccc(-c2cc3c(Sc4ccccc4)ncnc3[nH]2)cc1 [Compound J16] | 6.00 to 7.00 | 6.00 to 7.00 | IC50 (MV4,11 cells): < 100 nM; pKd [1]: 5.00 to 6.00
Cc1ccc(-c2cc3c(Sc4cccc(F)c4)ncnc3[nH]2)cc1 [Compound J17] | – | – | pKd (ABL1): 5.00 to 6.00
Cc1cc(C)cc(Sc2ncnc3[nH]c(-c4ccc(O)cc4)cc23)c1 [Compound J18] | – | – | pKd (ABL1): 5.00 to 6.00
COc1cccc(Sc2ncnc3[nH]c(-c4cccc(OC)c4)cc23)c1 [Compound J26] | – | – | pKd (ABL1): 6.00 to 7.00
COc1ccc(-c2cc3c(Sc4ccc(F)c(Cl)c4)ncnc3[nH]2)cc1 [Compound J37] | 6.00 to 7.00 | 6.00 to 7.00 | IC50 (MV4,11 cells): 100 to 1000 nM
Clc1ccc(Sc2ncnc3c2[nH]c2ccccc23)cc1Cl [Compound K5] | – | – | IC50 (MV4,11 cells): > 10000 nM
COc1cccc(Sc2ncnc3[nH]c(-c4ccc(O)cc4)cc23)c1 [Compound L4] | – | – | pKd (ABL1): 6.00 to 7.00; pKd (VEGFR2): 6.00 to 7.00
Cc1cccc(Sc2ncnc3[nH]c(-c4ccc(O)cc4)cc23)c1 [Compound L5] | – | – | pKd (VEGFR2): < 5.00
Oc1ccc(-c2cc3c(Sc4ccc(Cl)cc4)ncnc3[nH]2)cc1 [Compound L7] | – | – | pKd (VEGFR2): 5.00 to 6.00
Oc1ccc(-c2cc3c(Sc4ccc(F)cc4)ncnc3[nH]2)cc1 [Compound L8] | – | – | pKd (VEGFR2): < 5.00
Oc1ccc(-c2cc3c(Sc4ccccc4)ncnc3[nH]2)cc1 [Compound L10] | – | – | pKd (VEGFR2): < 5.00

Continued, in another order:

pKd (PDGFR-β) | pKd (FLT3) | SMILES | other results
5.00 to 6.00 | 6.00 to 7.00 | Cc1ccc(Sc2ncnc3[nH]c(-c4ccc(O)cc4)cc23)cc1 [Compound L9] | pKd (ABL1): 6.00 to 7.00; pKd (VEGFR2): 6.00 to 7.00
– | 6.00 to 7.00 | COc1ccc(-c2cc3c(Sc4ccccc4)ncnc3n2C)cc1 [Compound O7] | –
– | 6.00 to 7.00 | CCOc1ccc(-c2cc3c(Sc4ccccc4)ncnc3n2CC)cc1 [Compound O8] | –
– | 6.00 to 7.00 | CC(C)Oc1ccc(-c2cc3c(Sc4ccccc4)ncnc3n2C(C)C)cc1 [Compound O9] | –
– | 6.00 to 7.00 | COc1ccc(-c2cc3c(Sc4ccccc4)ncnc3n2C(C)C)cc1 [Compound O10] | –
– | 6.00 to 7.00 | COc1ccc(-c2cc3c(Sc4ccc(C)cc4)ncnc3n2C)cc1 [Compound O11] | –
– | 6.00 to 7.00 | CCOc1ccc(-c2cc3c(Sc4ccc(C)cc4)ncnc3n2CC)cc1 [Compound O12] | –
– | 5.00 to 6.00 | Cc1ccc(Sc2ncnc3c2cc(-c2ccc(OC(C)C)cc2)n3C(C)C)cc1 [Compound O13] | –
– | 5.00 to 6.00 | COc1ccc(-c2cc3c(Sc4ccc(C)cc4)ncnc3n2C(C)C)cc1 [Compound O14] | –
